Data on 2 compounds can be found in EP1121940A1, “Pharmaceutical compositions comprising an antibiotic and bromhexine, and process for their preparation” (New Pharma Research Sweden AB, priority 2000, dated 2001).

The conditions of data set [1]: solutions of pH greater than six; cited from earlier work.
For another data set, the system named is Escherichia coli. In words: Efficacy in the treatment of Escherichia coli infected chickens. The format is in vivo, broiler chickens. As to conditions: oral via drinking water, three consecutive days, recorded over ten days following treatment. An excerpt:
The aim of this study was to evaluate the effect of a treatment with a composition in accordance with the present invention on the mortality and clinical signs of chickens naturally infected by Escherichia coli, and to compare the efficacy of this treatment with the efficacy of a treatment with a composition containing only the antibiotic.
10 000 broiler chickens aged 1 day were used for the experiment. The birds were infected by natural infection by Escherichia coli.
The birds were then divided into 2 equal groups of 5 000 birds each. The first group was treated with a composition containing only enrofloxacin. The second group was treated with the composition of Example 1 of the present invention, containing both enrofloxacin and bromhexine-HCl. Thus, 1 ml of composition contained either 200 mg of enrofloxacin (composition for the treatment of the first group) or 200 mg of enrofloxacin and 10 mg of bromhexine-HCl (composition for the treatment of the second group).
For both groups, the treatment was made orally, for three consecutive days, and using the drinking water, at a dose of 1 ml of active composition per 4 litres of drinking water.
To assess the efficacy of the treatment, the mortality and body weight of the animals were recorded for each group over a period of ten days following the treatment.

For the next data set, the system named is pneumonia infection. As to the kind of experiment: Efficacy in the treatment of calves suffering from a pneumonia infection. The format is in vivo. As to conditions: intramuscular injection once a day for four consecutive days, results after 5 days. An excerpt: The aim of this study was to evaluate the effect of a treatment with a composition in accordance with the present invention on the mortality and clinical signs of calves suffering from a pneumonia infection, and to compare the efficacy of this treatment with the efficacy of a treatment with a composition containing only the antibiotic.
20 calves aged 1 to 4 months were used for the experiment. The animals were suffering from a pneumonia infection, characterized by severe respiratory disorders including coughing, rale and increased body temperature (measured between +39.5°C and +41°C).
The calves were divided into 2 equal groups of 10 animals each. The first group was treated with a composition containing only enrofloxacin. The second group was treated with the composition of Example 1 of the present invention, i.e. containing both enrofloxacin and bromhexine-HCl. Thus, 1 ml of composition contained either 200 mg of enrofloxacin (composition for the treatment of the first group) or 200 mg of enrofloxacin and 10 mg of bromhexine-HCl (composition for the treatment of the second group).
For both groups, the treatment was made by intramuscular injection, once a day and for four consecutive days, at a dose of 1 ml of active composition per 80 kg of animal body weight.
To assess the efficacy of the treatment, the mortality and body temperature of the animals were recorded for each group over a period of ten days following the treatment.

`CN(Cc1cc(Br)cc(Br)c1N)C1CCCCC1.Cl` [Bromhexine-HCl, N-(2-amino-3,5-dibromobenzyl)-N-methyl-cyclohexylamine hydrochloride]: in data set [1], the precipitation in solutions result is reported as “precipitate”.

On to `CCN1CCN(c2cc3c(cc2F)c(=O)c(C(=O)O)cn3C2CC2)CC1` [Enrofloxacine, 1-cyclopropyl-7-(4-ethyl-1-piperazinyl)-6-fluoro-1,4-dihydro-4-oxo-3-quinoline carboxylic acid], for which the Mortality % in the data set with Escherichia coli (1 ml composition per 4 litres) was found to be 2.23%; with pneumonia infection (1 ml per 80 kg body weight), 10%. Besides, the Mortality dead birds with Escherichia coli (1 ml composition per 4 litres, 5000 birds per group) is reported as 113/5000. The same compound displayed a Weight g/bird with Escherichia coli of 1810 g/bird. The Mortality dead animals in the data set on pneumonia infection (1 ml per 80 kg body weight, 10 calves per group) is 1/10. The Body temperature entry with pneumonia infection is “over 41.5 °C”.
